Laboratory results published in patent publication US20260297081A1, “COMPOUNDS AND METHODS OF TREATING CANCERS” (Cullgen Inc., priority 2023, published 2026).

System: MCF7 cells
Test: Anti-proliferation (viability) of MCF7 cells (Table 7, FIG. 2B)
Type: cell-based
Settings: Homo sapiens, MCF7, MCF7 cells, 3-6 days, 10-point serial dilution; read-out: GI IC50 in MCF-7

SMILES	IC50 [nM]
CNc1ccc(C(=O)Nc2ccc(N(C)C)nn2)c(NC2CC(C(=O)N3CCC4(CC3)CCN(c3ccc(Nc5ncc6c(C)c(C(C)=O)c(=O)n(C7CCCC7)c6n5)nc3)CC4)C2)n1 (centres unmarked) [CPD-337, 2-((3-(9-(6-((6-acetyl-8-cyclopentyl-5-methyl-7-oxo-7,8-dihydropyrido[2,3-d]pyrimidin-2-yl)amino)pyridin-3-yl)-3,9-diazaspiro[5.5]undecane-3-carbonyl)cyclobutyl)amino)-N-(6-(dimethylamino)pyridazin-3-yl)-6-(methylamino)nicotinamide]	> 100
[2H]C([2H])([2H])Nc1ccc(C(=O)Nc2cn(C)c(C3CC3)n2)c(NC2CC3(C2)CN(C(=O)CC(C)N2CCN(c4ccc(Nc5ncc6c(C)c(C(C)=O)c(=O)n(C7CCCC7)c6n5)nc4)CC2)C3)n1 (centres unmarked) [CPD-339, 2-((2-(3-(4-(6-((6-acetyl-8-cyclopentyl-5-methyl-7-oxo-7,8-dihydropyrido[2,3-d]pyrimidin-2-yl)amino)pyridin-3-yl)piperazin-1-yl)butanoyl)-2-azaspiro[3.3]heptan-6-yl)amino)-N-(2-cyclopropyl-1-methyl-1H-imidazol-4-yl)-6-((methyl-d3)amino)nicotinamide]	50 to 100
CNc1ccc(C(=O)Nc2ccc(N(C)C)nn2)c(NC23CC(NC(=O)CN4CCN(c5ccc(Nc6ncc7c(C)c(C(C)=O)c(=O)n(C8CCCC8)c7n6)nc5)CC4)(C2)C3)n1 [CPD-346, 2-((3-(2-(4-(6-((6-acetyl-8-cyclopentyl-5-methyl-7-oxo-7,8-dihydropyrido[2,3-d]pyrimidin-2-yl)amino)pyridin-3-yl)piperazin-1-yl)acetamido)bicyclo[1.1.1]pentan-1-yl)amino)-N-(6-(dimethylamino)pyridazin-3-yl)-6-(methylamino)nicotinamide]	> 100
CNc1ccc(C(=O)Nc2cn(C)c(C3CC3)n2)c(NC2CCC3(CC2)CC(NC(=O)CN2CCN(c4ccc(Nc5ncc6c(C)c(C(C)=O)c(=O)n(C7CCCC7)c6n5)nc4)CC2)C3)n1 (centres unmarked) [CPD-347, 2-((2-(2-(4-(6-((6-acetyl-8-cyclopentyl-5-methyl-7-oxo-7,8-dihydropyrido[2,3-d]pyrimidin-2-yl)amino)pyridin-3-yl)piperazin-1-yl)acetamido)spiro[3.5]nonan-7-yl)amino)-N-(2-cyclopropyl-1-methyl-1H-imidazol-4-yl)-6-(methylamino)nicotinamide]	> 100
CNc1ccc(C(=O)Nc2ccc(N(C)C)nn2)c(NC2CCC(C(=O)N3CCC4(CC3)CCN(c3ccc(Nc5ncc6c(C)c(C(C)=O)c(=O)n(C7CCCC7)c6n5)nc3)CC4)CC2)n1 (centres unmarked) [CPD-350, 2-((4-(9-(6-((6-acetyl-8-cyclopentyl-5-methyl-7-oxo-7,8-dihydropyrido[2,3-d]pyrimidin-2-yl)amino)pyridin-3-yl)-3,9-diazaspiro[5.5]undecane-3-carbonyl)cyclohexyl)amino)-N-(6-(dimethylamino)pyridazin-3-yl)-6-(methylamino)nicotinamide]	> 100
[2H]C([2H])([2H])Nc1ccc(C(=O)Nc2cc(C)n(C)n2)c(NC2CC(C(C)NC(=O)CN3CCN(c4ccc(Nc5ncc6c(C)c(C(C)=O)c(=O)n(C7CCCC7)c6n5)nc4)CC3)C2)n1 (centres unmarked) [CPD-353, 2-((3-(1-(2-(4-(6-((6-acetyl-8-cyclopentyl-5-methyl-7-oxo-7,8-dihydropyrido[2,3-d]pyrimidin-2-yl)amino)pyridin-3-yl)piperazin-1-yl)acetamido)ethyl)cyclobutyl)amino)-N-(1,5-dimethyl-1H-pyrazol-3-yl)-6-((methyl-d3)amino)nicotinamide]	> 100
CNc1ccc(C(=O)Nc2ccc(N(C)C)nn2)c(NCC2COC3(C2)CN(C(=O)CN2CCN(c4ccc(Nc5ncc6c(C)c(C(C)=O)c(=O)n(C7CCCC7)c6n5)nc4)CC2)C3)n1 (centres unmarked) [CPD-354, 2-(((2-(2-(4-(6-((6-acetyl-8-cyclopentyl-5-methyl-7-oxo-7,8-dihydropyrido[2,3-d]pyrimidin-2-yl)amino)pyridin-3-yl)piperazin-1-yl)acetyl)-5-oxa-2-azaspiro[3.4]octan-7-yl)methyl)amino)-N-(6-(dimethylamino)pyridazin-3-yl)-6-(methylamino)nicotinamide]	> 100

The remaining lines, values ahead:

IC50 [nM]	SMILES
> 100	CNc1ccc(C(=O)Nc2cn(C)c(C(C)(C)O)n2)c(NC2CC3(CC(NC(=O)CN4CCN(c5ccc(Nc6ncc7c(C)c(C(C)=O)c(=O)n(C8CCCC8)c7n6)nc5)CC4)C3)C2)n1 (centres unmarked) [CPD-340, 2-((6-(2-(4-(6-((6-acetyl-8-cyclopentyl-5-methyl-7-oxo-7,8-dihydropyrido[2,3-d]pyrimidin-2-yl)amino)pyridin-3-yl)piperazin-1-yl)acetamido)spiro[3.3]heptan-2-yl)amino)-N-(2-(2-hydroxypropan-2-yl)-1-methyl-1H-imidazol-4-yl)-6-(methylamino)nicotinamide]
50 to 100	[2H]C([2H])([2H])Nc1ccc(C(=O)Nc2ccc(N(C)C)nn2)c(NC2CC(CNC(=O)CN3CCN(c4ccc(Nc5ncc6c(C)c(C(C)=O)c(=O)n(C7CCCC7)c6n5)nc4)CC3)C2)n1 (centres unmarked) [CPD-343, 2-((3-((2-(4-(6-((6-acetyl-8-cyclopentyl-5-methyl-7-oxo-7,8-dihydropyrido[2,3-d]pyrimidin-2-yl)amino)pyridin-3-yl)piperazin-1-yl)acetamido)methyl)cyclobutyl)amino)-N-(6-(dimethylamino)pyridazin-3-yl)-6-((methyl-d3)amino)nicotinamide]
> 100	CNc1ccc(C(=O)Nc2ccc(N(C)C)nn2)c(NCC2(F)CN(C(=O)CN3CCN(c4ccc(Nc5ncc6c(C)c(C(C)=O)c(=O)n(C7CCCC7)c6n5)nc4)CC3)C2)n1 [CPD-344, 2-(((1-(2-(4-(6-((6-acetyl-8-cyclopentyl-5-methyl-7-oxo-7,8-dihydropyrido[2,3-d]pyrimidin-2-yl)amino)pyridin-3-yl)piperazin-1-yl)acetyl)-3-fluoroazetidin-3-yl)methyl)amino)-N-(6-(dimethylamino)pyridazin-3-yl)-6-(methylamino)nicotinamide]
> 100	CNc1ccc(C(=O)Nc2ccc(N(C)C)nn2)c(NCC23CC(NC(=O)CN4CCN(c5ccc(Nc6ncc7c(C)c(C(C)=O)c(=O)n(C8CCCC8)c7n6)nc5)CC4)(C2)C3)n1 [CPD-345, 2-(((3-(2-(4-(6-((6-acetyl-8-cyclopentyl-5-methyl-7-oxo-7,8-dihydropyrido[2,3-d]pyrimidin-2-yl)amino)pyridin-3-yl)piperazin-1-yl)acetamido)bicyclo[1.1.1]pentan-1-yl)methyl)amino)-N-(6-(dimethylamino)pyridazin-3-yl)-6-(methylamino)nicotinamide]
> 100	CNc1ccc(C(=O)Nc2ccc(N(C)C)nn2)c(NC2CC3(C2)CN(C(=O)C2CC(N4CCN(c5ccc(Nc6ncc7c(C)c(C(C)=O)c(=O)n(C8CCCC8)c7n6)nc5)CC4)C2)C3)n1 (centres unmarked) [CPD-348, 2-((2-(3-(4-(6-((6-acetyl-8-cyclopentyl-5-methyl-7-oxo-7,8-dihydropyrido[2,3-d]pyrimidin-2-yl)amino)pyridin-3-yl)piperazin-1-yl)cyclobutane-1-carbonyl)-2-azaspiro[3.3]heptan-6-yl)amino)-N-(6-(dimethylamino)pyridazin-3-yl)-6-(methylamino)nicotinamide]
> 100	CC(=O)c1c(C)c2cnc(Nc3ccc(N4CCN(CC(=O)NC5CC6(C5)CC(Nc5nc(C(C)O)ccc5C(=O)Nc5cn(C)c(C7CC7)n5)C6)CC4)cn3)nc2n(C2CCCC2)c1=O (centres unmarked) [CPD-349, 2-((6-(2-(4-(6-((6-acetyl-8-cyclopentyl-5-methyl-7-oxo-7,8-dihydropyrido[2,3-d]pyrimidin-2-yl)amino)pyridin-3-yl)piperazin-1-yl)acetamido)spiro[3.3]heptan-2-yl)amino)-N-(2-cyclopropyl-1-methyl-1H-imidazol-4-yl)-6-(1-hydroxyethyl)nicotinamide]
> 100	CNc1ccc(C(=O)Nc2ccc(N(C)C)nn2)c(NC2CCC(C(=O)N3CC4(CCN(c5ccc(Nc6ncc7c(C)c(C(C)=O)c(=O)n(C8CCCC8)c7n6)nc5)CC4)C3)CC2)n1 (centres unmarked) [CPD-351, 2-((4-(7-(6-((6-acetyl-8-cyclopentyl-5-methyl-7-oxo-7,8-dihydropyrido[2,3-d]pyrimidin-2-yl)amino)pyridin-3-yl)-2,7-diazaspiro[3.5]nonane-2-carbonyl)cyclohexyl)amino)-N-(6-(dimethylamino)pyridazin-3-yl)-6-(methylamino)nicotinamide]
> 100	CC(=O)c1c(C)c2cnc(Nc3ccc(N4CCN(CC(=O)NC5CC6(C5)CC(Nc5nc(C(C)(C)O)ccc5C(=O)Nc5cn(C)c(C7CC7)n5)C6)CC4)cn3)nc2n(C2CCCC2)c1=O (centres unmarked) [CPD-352, 2-((6-(2-(4-(6-((6-acetyl-8-cyclopentyl-5-methyl-7-oxo-7,8-dihydropyrido[2,3-d]pyrimidin-2-yl)amino)pyridin-3-yl)piperazin-1-yl)acetamido)spiro[3.3]heptan-2-yl)amino)-N-(2-cyclopropyl-1-methyl-1H-imidazol-4-yl)-6-(2-hydroxypropan-2-yl)nicotinamide]
50 to 100	CC(=O)c1c(C)c2cnc(Nc3ccc(N4CCN(C(C)CC(=O)N5CC(Nc6nc(NC(C)C)ccc6C(=O)Nc6ccc(N(C)C)nn6)C5)CC4)cn3)nc2n(C2CCCC2)c1=O (centres unmarked) [CPD-355, 2-((1-(3-(4-(6-((6-acetyl-8-cyclopentyl-5-methyl-7-oxo-7,8-dihydropyrido[2,3-d]pyrimidin-2-yl)amino)pyridin-3-yl)piperazin-1-yl)butanoyl)azetidin-3-yl)amino)-N-(6-(dimethylamino)pyridazin-3-yl)-6-(isopropylamino)nicotinamide]
50 to 100	CC(=O)c1c(C)c2cnc(Nc3ccc(N4CCC(NCC(=O)N5CC(Nc6nc(NC(C)C)ccc6C(=O)Nc6ccc(N(C)C)nn6)C5)CC4)cn3)nc2n(C2CCCC2)c1=O [CPD-356, 2-((1-((1-(6-((6-acetyl-8-cyclopentyl-5-methyl-7-oxo-7,8-dihydropyrido[2,3-d]pyrimidin-2-yl)amino)pyridin-3-yl)piperidin-4-yl)glycyl)azetidin-3-yl)amino)-N-(6-(dimethylamino)pyridazin-3-yl)-6-(isopropylamino)nicotinamide]
